The values that follow come from patent US20190169218A1, “AMPHIPATHIC COMPOUND HAVING NOVEL PENTA-SACCHARIDE HYDROPHILIC GROUP AND USE THEREOF” (Industry-University Cooperation Foundation Hanyang …, priority 2016, published 2019).

A short description of data set [1]: critical micelle concentration (CMC) by hydrophobic fluorescent staining with diphenylhexatriene (DPH). The data set is classed as physicochemical. From the text:
Methods of measuring CMC are not particularly limited, and methods widely known in the art may be used. For example, a fluorescence staining method using diphenylhexatriene (DPH) may be used.
To characterize PSAs of Preparation Examples 1 to 3 synthesized according to the synthetic method of Example 1; PSEs of Preparation Examples 4 to 7 synthesized according to the synthetic method of Example 2; TPS-Es and TPS-ELs of Preparation Examples 8 to 14 synthesized according to the synthetic method of Example 3; and TPS-As of Preparation Examples 15 to 17 synthesized according to the synthetic method of Example 4, the critical micellar concentrations (CMCs) of PSAs, PSEs and TPSs and the hydrodynamic radii (Rh) of formed micelles were measured.
(§1) Specifically, critical micellar concentrations (CMCs) were measured using hydrophobic fluorescent staining and diphenylhexatriene (DPH), and the hydrodynamic radii (Rh) of micelles formed by each compound at a concentration of 1.0 wt % were measured using dynamic light scattering (DLS). The results were compared with results obtained from an existing amphipathic molecule (detergent), DDM, and are shown in Table 1.

Data set [2] is described as follows: hydrodynamic radius of micelles by dynamic light scattering (DLS). The settings on record: compound at 1.0 wt %. The data set is classed as physicochemical. The procedure:
Methods of measuring the radius of micelles are not particularly limited, and methods widely known in the art may be used. For example, dynamic light scattering (DLS) may be used.
as §1
When measuring, each of PSAs, PSEs and TPSs was used at a concentration of 1.0 wt %.

Data set [3] addresses T1, human β2 adrenergic receptor (β2AR) (Homo sapiens, UniProt P07550).
T1 construct: Flag; made in house
As to the kind of experiment: β2AR activity by [3H]-dihydroalprenolol radioactive ligand binding assay. The data set is classed as biochemical. Particulars: for long-term β2AR activity ([3H]-DHA binding): 3 or 5 days at room temperature. On the procedure:
The membrane protein stabilizing ability of receptors (mBBr-β2ARs) solubilized in PSAs or PSEs was evaluated by measuring the binding activity of the receptors to [^3H]-dihydroalprenolol ([^3H]-DHA).
Specifically, radioactive ligand binding assay was performed as follows. β2ARs purified with 0.1 wt % DDM was concentrated to about 10 mg/mL (approximately 200 μM). β2ARs purified with DDM were used to prepare a master binding mixture containing 10 nM [^3H]-dihydroalprenolol (DHA), which was dissolved in 0.2 wt % of DDM, PSA or PSE and supplemented with 0.5 mg/mL BSA. At a concentration of 0.2 pmol, the activity of the receptors purified with the amphipathic compounds was monitored at regular intervals over a 4-day incubation period. Protein samples were incubated on ice for 2 days and then at room temperature for 2 days. Receptor activity was measured by binding assay for dissolved radioactive ligands. The receptors purified with DDM or a novel formulation (PSA-C11, PSE-C11 or PSE-C13) were incubated with 10 nM [^3H]-DHA at room temperature for 30 minutes. The mixture was loaded onto a G-50 column, a solution passed through the column was collected in 1 mL of a binding buffer (100 mM NaCl and 20 mM HEPES (pH 7.5) supplemented with 0.5 mg/mL BSA and 20×CMC amphipathic compounds), and 15 mL of a scintillation fluid was added to the solution. Receptor-bound [^3H]-DHA was measured using a scintillation counter (Beckman). Non-specific binding of [^3H]-DHA was measured by adding 1 μM alprenolol (Sigma) to the same reaction mixture. The binding degree of the receptors to [^3H]-DHA was represented by a column graph.
The ability of TPSs (TPS-As, TPS-Es and TPS-ELs) to stabilize the structures of human β2 adrenergic receptors (β2ARs) and G protein-coupled receptors (GPCRs) was measured. That is, DDM-purified receptors were diluted with a buffer solution containing only each of the TPSs without cholesteryl hemisuccinate (CHS) or a buffer solution containing CHS and DDM. The final concentration of the compounds was CMC+0.2wt %, and the binding activity of the receptors to ligands was evaluated by measuring the degree of binding of the receptors to [^3H]-dihydroalprenolol ([^3H]-DHA).
Specifically, radioactive ligand binding assay was performed as follows. β2ARs were purified with 0.1 wt % DDM (D. M. Rosenbaum et al., Science, 2007, 318, 1266-1273.) and was concentrated to about 10 mg/mL (approximately 200 μM). β2ARs purified with DDM were used to prepare a master binding mixture containing 10 nM [^3H]-dihydroalprenolol (DHA), which was dissolved in 0.2% amphipathic compounds (DDM or TPSs) and supplemented with 0.5 mg/mL BSA. The activity of the receptors purified with the amphipathic compounds was monitored at regular intervals over a 3- to 5-day incubation period. The receptors purified with DDM or TPSs were incubated with 10 nM [^3H]-DHA at room temperature for 30 minutes. The mixture was loaded onto a G-50 column, a solution passed through the column was collected in 1 mL of a binding buffer (100 mM NaCl and 20 mM HEPES (pH 7.5) supplemented with 0.5 mg/mL BSA and 20×CMC of each amphipathic compound), and 15 mL of a scintillation fluid was added to the solution. Receptor-bound [^3H]-DHA was measured using a scintillation counter (Beckman). The binding degree of the receptors to [^3H]-DHA was represented by a column graph.

Data set [4] has as its system T4L-β2AR-Gs or β2AR-Gs complexes. As to the kind of experiment: purification and stability of T4L-β2AR-Gs or β2AR-Gs complexes (analytical gel filtration, negative staining EM). Further details: species or system human. The settings on record: after incubation for 15 and 17 days. On the procedure:
The ability of PSE-C11 or TPS-E10L to purify and stabilize T4L-β2AR-Gs or β2AR-Gs complexes was measured using electron microscopy (EM) analysis.
Specifically, measurement of the ability of PSE-C11 for TPS-E10L to purify and stabilize T4L-β2AR-Gs or β2AR-Gs complexes was performed as follows. 100 μM T4L-β2AR solubilized in 0.1 wt % DDM was mixed with 120 μM Gs heterotrimers for 30 minutes. 0.5 units of apyrase (NEB) and 2 mM MgCl2 were added to the mixture, followed by a 1-hour incubation to form complexes. 1 wt % PSE-C11 or TPS-E10L was respectively added to the mixture to achieve a final concentration of 0.8%, and incubated for 30 minutes to allow DDM to be exchanged with PSE-C11 or TPS-E10L. […] Finally, proteins were eluted with a 0.05% (100×CMC) PSE-C11 or TPS-E10L buffer. Gel filtration was performed using a running buffer (20 mM HEPES (pH 7.5), 100 mM NaCl, 0.005% PSE-C11 or TPS-E10L, 1 μM BI, 100 μM TCEP) to purify T4L-β2AR-Gs complexes. To measure the stability of β2AR-Gs complexes present in PSE-C11 or TPS-E10L, analytical gel filtration was performed with running buffers of the same formulation at 12 hours, 1 day, 3 days, 7 days, and 15 days. After a 15 day-incubation, analytical gel filtration was performed using an amphiphilic compound pre-buffer having the same formulation as above without PSE-C11 or TPS-E10L.
In addition, negative staining EM analysis for T4L-β2AR-Gs or β2AR-Gs complexes present in PSE-C11 was performed as follows. Samples containing T4L-β2AR-Gs or β2AR-Gs were prepared to perform electron microscopy analysis using a conventional negative staining protocol (see Peisley, A. et al., G Protein-Coupled Receptors in Drug Discovery: Methods and Protocols, Methods in Molecular Biology, 1335, 29-38 (2015)), and imaging was performed by operating a Tecnai T12 electron microscope at 120 kV at room temperature. Images were recorded with a Gatan US4000 CCD camera at a 71,138×magnification with a defocus value of ˜[…].
A general note: Size exclusion chromatography separates by hydrodynamic size, large species first.

Data set [5] has as its target T2, uric acid-xanthine/H+ symporter (UapA) (Emericella nidulans, UniProt Q07307, G411V).
T2 construct: GFP; made in house; host or cells: Saccharomyces cerevisiae FGY217
As to the kind of experiment: thermal stability of UapA by CPM analysis. Further details: species or system Aspergillus nidulans. Particulars: CMC+0.2 wt %, 40° C., 120 minutes. The procedure:
The ability of TPSs (TPS-As, TPS-Es and TPS-ELs) to stabilize the structure of uric acid-xanthine/H+ symporter (UapA) isolated from Aspergillus nidulans was measured. The structural stability of UapA was evaluated using a sulfhydryl-specific fluorophore, N-[4-(7-diethylamino-4-methyl-3-coumarinyl)phenyl]maleimide (CPM).
Specifically, UapAG411V1-11 (hereinafter, referred to as ‘UapA’) was expressed in a Saccharomyces cerevisiae FGY217 strain as a GFP fusion protein, and was isolated using a sample buffer (20 mM Tris (pH 7.5), 150 mM NaCl, 0.03% DDM, 1 mM xanthine). The transporter was concentrated to about 10 mg/mL using a 100 kDa molecular weight cut-off filter (Millipore). The transporter was diluted with a CMC+0.04 wt % or CMC+0.2 wt % buffer at a ratio of 1:150 in a Greiner 96-well plate containing one of TPS-As (TPS-A6, TPS-A7 or TPS-A8), TPS-Es (TPS-E6, TPS-E7 or TPS-E8), TPS-ELs (TPS-E8L, TPS-E9L, TPS-E10L or TPS-E11L), MNG-3 or DDM (control group). […] During incubation, fluorescence emission intensity was monitored using a microplate spectrophotometer set at excitation and emission wavelengths of 387 and 463 nm, respectively. The maximum value of fluorescence intensity was used to calculate the relative percentage of folded transporters during the incubation period. […]

T1 sequence (P07550 whole entry): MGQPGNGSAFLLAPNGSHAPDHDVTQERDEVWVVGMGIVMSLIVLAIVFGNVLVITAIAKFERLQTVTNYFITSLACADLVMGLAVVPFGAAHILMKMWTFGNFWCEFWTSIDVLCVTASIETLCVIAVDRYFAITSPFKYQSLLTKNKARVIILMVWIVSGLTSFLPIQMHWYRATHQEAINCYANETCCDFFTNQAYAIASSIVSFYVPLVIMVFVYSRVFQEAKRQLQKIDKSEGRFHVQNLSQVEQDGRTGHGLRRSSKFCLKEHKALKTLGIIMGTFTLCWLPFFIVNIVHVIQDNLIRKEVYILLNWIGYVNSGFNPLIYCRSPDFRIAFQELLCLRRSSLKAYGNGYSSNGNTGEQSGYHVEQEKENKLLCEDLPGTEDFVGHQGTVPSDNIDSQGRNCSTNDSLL
T2 sequence (Q07307 12-574 G411V): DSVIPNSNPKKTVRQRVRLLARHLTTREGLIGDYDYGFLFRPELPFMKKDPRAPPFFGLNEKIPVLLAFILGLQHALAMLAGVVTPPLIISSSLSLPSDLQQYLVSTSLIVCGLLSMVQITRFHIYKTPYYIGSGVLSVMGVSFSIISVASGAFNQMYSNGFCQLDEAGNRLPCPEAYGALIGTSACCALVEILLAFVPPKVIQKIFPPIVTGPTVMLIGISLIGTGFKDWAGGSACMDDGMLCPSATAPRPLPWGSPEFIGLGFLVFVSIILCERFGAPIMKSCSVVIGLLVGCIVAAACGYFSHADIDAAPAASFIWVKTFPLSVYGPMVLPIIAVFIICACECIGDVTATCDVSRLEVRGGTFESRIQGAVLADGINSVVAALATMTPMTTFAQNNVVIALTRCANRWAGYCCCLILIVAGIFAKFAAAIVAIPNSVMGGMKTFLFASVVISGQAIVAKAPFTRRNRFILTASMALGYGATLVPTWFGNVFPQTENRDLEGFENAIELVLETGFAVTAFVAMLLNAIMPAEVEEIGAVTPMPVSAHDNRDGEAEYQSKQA

As to `CCCCCCCCCCOCC(COCCCCCCCCCC)(COCCCCCCCCCC)CO[C@@H]1OC(COCCCO[C@@H]2OC(CO)[C@@H](O)C(O)C2O)[C@@H](OCCCO[C@@H]2OC(CO)[C@@H](O)C(O)C2O)C(OCCCO[C@@H]2OC(CO)[C@@H](O)C(O)C2O)C1OCCCO[C@@H]1OC(CO)[C@@H](O)C(O)C1O` (some centres unmarked) [TPS-E10L], in data set [1], the “CMC” value was about 0.002 mM and the “CMC (wt %)” value was about 0.0003 wt %. In addition, in data set [2], the “Rh (nm), hydrodynamic radius of micelles” value came out at 4.8 ± 0.34 nm. In addition, the “long-term β2AR activity ([3H]-DHA binding)” value in data set [3] is recorded as “significantly better than that of DDM”. In data set [3] (after 5 days of incubation at room temperature), the “initial receptor activity maintained” value is on record as “up to 90%”. The “stability of β2AR-Gs complexes (analytical gel filtration)” value in data set [4] is recorded as “no separation of the complexes was observed at all”.
Consider `CCCCCCCCCCCOCC(COCCCCCCCCCCC)(COCCCCCCCCCCC)CO[C@@H]1OC(COCCCO[C@@H]2OC(CO)[C@@H](O)C(O)C2O)[C@@H](OCCCO[C@@H]2OC(CO)[C@@H](O)C(O)C2O)C(OCCCO[C@@H]2OC(CO)[C@@H](O)C(O)C2O)C1OCCCO[C@@H]1OC(CO)[C@@H](O)C(O)C1O` (some centres unmarked) [TPS-E11L], for which, in data set [1], the “CMC” value is about 0.001 mM and the “CMC (wt %)” value is on record as about 0.0002 wt %. Also, in data set [2], the “Rh (nm), hydrodynamic radius of micelles” value is 40.6 ± 4.4 nm. Besides, in data set [3], the “long-term β2AR activity ([3H]-DHA binding)” value is recorded as “significantly better than that of DDM”. In addition, the “maintaining folding state of UapA (CPM)” value in data set [5] is listed as “the best effect”.
